{
  "source": "ChEMBL document CHEMBL1158024",
  "about": "“Terpenoids of Syzygium formosanum” (J Nat Prod, 1999)",
  "experiment": "Inhibition of moloney murine leukemia virus reverse transcriptase",
  "data": [
    {"smiles": "C=C(C)[C@@H]1CC[C@]2(C(=O)O)CC[C@]3(C)[C@H](CC[C@@H]4[C@@]5(C)CC[C@H](O)C(C)(C)[C@@H]5CC[C@]43C)[C@@H]12", "note": "[BETULINIC ACID]", "values": [
      {"measurement": "EC50", "value": 1400, "unit": "nM"}
    ]}
  ]
}
